ChEMBL document CHEMBL1201862, “PubChem BioAssay data set” (2004)
Calls of active or inactive are those of the source.

Columns and labels:
[1] = molecular target: cAMP-dependent protein kinase catalytic subunit alpha (Homo sapiens, UniProt P17612); type: functional
[2] = molecular target: T1, Interleukin-1 receptor-associated kinase 4 (Homo sapiens, UniProt Q9NWZ3); type: functional
T1 sequence (Q9NWZ3 whole entry): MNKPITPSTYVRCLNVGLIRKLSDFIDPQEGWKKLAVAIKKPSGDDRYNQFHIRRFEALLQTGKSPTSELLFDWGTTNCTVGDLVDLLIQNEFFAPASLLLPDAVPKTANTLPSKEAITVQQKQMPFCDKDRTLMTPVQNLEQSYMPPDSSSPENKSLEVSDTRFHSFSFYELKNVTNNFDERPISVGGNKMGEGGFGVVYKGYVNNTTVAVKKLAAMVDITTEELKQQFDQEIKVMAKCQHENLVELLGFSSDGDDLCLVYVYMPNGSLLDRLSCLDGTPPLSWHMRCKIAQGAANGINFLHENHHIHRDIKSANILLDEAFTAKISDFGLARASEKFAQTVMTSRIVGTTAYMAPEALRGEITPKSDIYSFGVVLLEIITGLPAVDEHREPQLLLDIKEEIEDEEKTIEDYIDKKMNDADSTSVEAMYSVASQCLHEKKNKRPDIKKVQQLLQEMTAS

[3] = molecular target: Serine/threonine-protein kinase pim-1 (Homo sapiens, UniProt P11309); type: functional
[4] = molecular target: Homeodomain-interacting protein kinase 2 (Homo sapiens, UniProt Q9H2X6); type: functional;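 also: measured within a kinome-wide kinase profiling panel, HIPK2 being one panel member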
[5] = molecular target: MAP kinase-interacting serine/threonine-protein kinase 2 (Homo sapiens, UniProt Q9HBH9); type: functional
[6] = molecular target: Mitogen-activated protein kinase kinase kinase kinase 4 (Homo sapiens, UniProt O95819); type: functional
[7] = molecular target: Dual specificity protein kinase CLK4 (Homo sapiens, UniProt Q9HAZ1); type: functional
[8] = molecular target: Cell division cycle 7-related protein kinase (Homo sapiens, UniProt O00311); type: functional;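 also: value obtained from a kinome-wide kinase panel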
[9] = molecular target: Glycogen synthase kinase-3 beta (Homo sapiens, UniProt P49841); type: functional;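 also: value comes from a broad kinome profiling panel, with GSK3B as the panel member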
[10] = molecular target: Nuclear receptor subfamily 5 group A member 2 (Homo sapiens, UniProt O00482); type: functional, cell-based;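 also: HEK293T cells transfected with LRH-1 and a StAR promoter luciferase reporter; potency for inhibitors that lower LRH-1 driven reporter light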
Steroidogenic factor 1 = Steroidogenic factor 1 (Homo sapiens, UniProt Q13285); experiment: Counterscreen for inverse agonists of the liver receptor homolog-1 (LRH-1; NR5A2): Luminescence-based cell-based high throughput dose response assay to identify inverse agonists of the Steroidogenic Factor 1 Nuclear Receptor (SF1; NR5A1).; type: functional
[11] = StAR promoter reporter inhibition counter-screen, dose response, counter-screen for LRH-1 inverse agonist project, cell-based, luminescence, luciferase reporter (AID 651969); type: functional
[12] = molecular target: T2, Apoptotic protease-activating factor 1 (Homo sapiens, UniProt O14727); experiment: SAR analysis of small molecule Activators of Apaf-1 in a Fluorescent assay.; type: functional; details: read-out: EC50_Mean;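 also: caspase-3 cleavage of fluorogenic Rh110 DEVD substrate downstream of apoptosome activation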
T2 sequence (O14727 whole entry): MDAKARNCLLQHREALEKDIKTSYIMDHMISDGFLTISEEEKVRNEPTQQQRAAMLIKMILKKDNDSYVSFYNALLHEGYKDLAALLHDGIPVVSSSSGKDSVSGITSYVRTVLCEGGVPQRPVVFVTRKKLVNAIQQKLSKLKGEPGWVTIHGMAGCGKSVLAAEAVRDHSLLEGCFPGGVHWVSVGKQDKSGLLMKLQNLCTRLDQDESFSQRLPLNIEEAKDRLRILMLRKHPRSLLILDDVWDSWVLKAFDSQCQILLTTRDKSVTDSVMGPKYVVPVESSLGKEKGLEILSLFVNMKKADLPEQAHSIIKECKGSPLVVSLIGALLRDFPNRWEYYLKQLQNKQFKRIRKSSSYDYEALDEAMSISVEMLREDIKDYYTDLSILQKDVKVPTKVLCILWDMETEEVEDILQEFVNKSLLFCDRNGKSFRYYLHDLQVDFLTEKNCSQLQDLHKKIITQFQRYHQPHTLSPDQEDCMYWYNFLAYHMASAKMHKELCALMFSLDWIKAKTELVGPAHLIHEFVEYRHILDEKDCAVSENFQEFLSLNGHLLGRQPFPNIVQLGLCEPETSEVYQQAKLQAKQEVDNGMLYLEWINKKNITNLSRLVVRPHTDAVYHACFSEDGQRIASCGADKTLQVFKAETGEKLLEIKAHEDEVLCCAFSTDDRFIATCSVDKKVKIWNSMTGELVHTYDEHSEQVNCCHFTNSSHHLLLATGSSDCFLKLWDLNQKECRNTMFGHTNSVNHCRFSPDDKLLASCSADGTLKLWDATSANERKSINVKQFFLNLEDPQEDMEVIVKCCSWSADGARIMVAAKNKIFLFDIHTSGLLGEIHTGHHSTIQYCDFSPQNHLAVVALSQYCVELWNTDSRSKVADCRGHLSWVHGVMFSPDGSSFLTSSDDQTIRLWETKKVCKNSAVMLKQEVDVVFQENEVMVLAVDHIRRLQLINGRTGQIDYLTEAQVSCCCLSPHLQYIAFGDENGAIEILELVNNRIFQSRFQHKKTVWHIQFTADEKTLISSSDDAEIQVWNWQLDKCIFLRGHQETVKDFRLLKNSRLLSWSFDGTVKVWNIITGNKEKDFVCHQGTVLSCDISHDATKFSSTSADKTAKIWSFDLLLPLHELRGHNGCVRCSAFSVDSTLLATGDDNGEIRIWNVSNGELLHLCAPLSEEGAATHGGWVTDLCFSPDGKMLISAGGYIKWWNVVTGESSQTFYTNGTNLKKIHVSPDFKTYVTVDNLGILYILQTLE

[13] = molecular target: T3, Polyadenylate-binding protein 1 (Homo sapiens, UniProt P11940); experiment: PABP1 MLLE–PAM2 binding inhibitor potency, dose response, biochemical, fluorescence polarization, FITC-PAM2 peptide (AID 602259); type: functional; details: read-out: IC50_Mean
[14] = molecular target: T4, Sentrin-specific protease 8 (Homo sapiens, UniProt Q96LD8); type: functional
T4 sequence (Q96LD8 whole entry): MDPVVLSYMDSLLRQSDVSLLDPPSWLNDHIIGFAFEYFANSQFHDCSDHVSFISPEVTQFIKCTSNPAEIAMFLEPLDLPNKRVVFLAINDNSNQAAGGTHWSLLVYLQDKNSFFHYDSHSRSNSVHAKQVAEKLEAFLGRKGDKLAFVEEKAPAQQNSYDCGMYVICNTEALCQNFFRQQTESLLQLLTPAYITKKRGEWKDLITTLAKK

Genome polyprotein = Genome polyprotein (dengue virus type 2, UniProt P29990); experiment: Dengue-2 NS5 methyltransferase inhibitors, primary screen, biochemical, confirmation dose response (AID 588689); type: functional
[15] = molecular target: T3, Polyadenylate-binding protein 1; experiment: PABP1 MLLE–PAM2 interaction inhibitors, dose response, miRNA deadenylation inhibitor project, biochemical, fluorescence polarization, Cy5-PAM2 peptide, secondary (AID 602260); type: functional; details: read-out: IC50_Mean
[16] = molecular target: T4, Sentrin-specific protease 8; type: functional; remark: listed apart in the source
[17] = molecular target: Adenosylmethionine-8-amino-7-oxononanoate aminotransferase (Mycobacterium tuberculosis, UniProt P9WQ81); experiment: Mycobacterium tuberculosis BioA enzyme inhibitor Measured in Biochemical System Using Plate Reader - 2163-02_Inhibitor_Dose_CherryPick_Activity.; type: functional, Mycobacterium tuberculosis UT205
[18] = HEK293T cell cytotoxicity, dose response, cytotoxicity control for HIV Vif inhibitor project, cherry-picks (AID 652208); type: functional, cell-based
[19] = Luminescence Cell-Based Dose Retest to Confirm Inhibitors of Cancer Stem Cells. [Related pubchem assays (depositor defined):AID2717, AID2721]; type: functional; details: Homo sapiens
Prothrombin = Prothrombin (Bos taurus, UniProt P00735); experiment: thrombin inhibition, dose response, biochemical, fluorescence polarization, uHTS hits (AID 602369); type: functional
[20] = molecular target: 26S proteasome non-ATPase regulatory subunit 14 (Homo sapiens, UniProt O00487); experiment: inhibition of proteasome subunit RPN11 – biochemical, fluorescence polarization, uHTS hits, confirmation (AID 602368); type: functional
INS1 = experiment: beta cell apoptosis inhibitors, cytokine rescue, dose response, luminescence, retest (AID 449756); type: functional, cell-based; details: Rattus norvegicus;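 also: cell death triggered by IL-1 beta plus TNF-alpha plus IFN-gamma mixture; protective hits raise ATP signal compared with cytokine alone wells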
[21] = molecular target: 72 kDa type IV collagenase (Homo sapiens, UniProt P08253); experiment: Dose Response validation of uHTS RPN11 inhibitor hits using a MMP-2 Fluorescence assay.; type: functional
[22] = molecular target: Arf-GAP with SH3 domain, ANK repeat and PH domain-containing protein 1 (Homo sapiens, UniProt Q9ULH1); type: functional;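 also: biochemical fluorescence polarization dose–response screen measuring inhibition of ASAP1; ASAP1 GAP domain stimulating GTP hydrolysis by truncated human ARF1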
[23] = growth suppression of beta-catenin-knockout colon cells, dose response, cell-based, HCT116, human colon tumor (AID 1045); type: functional;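 also: HCT116 colon tumor cells with beta catenin knocked out; cells exposed to compound for 60 hours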
[24] = inhibitors of intracellular T. cruzi replication, confirmation, NIH3T3 host cells, beta-gal luminescence (AID 2044); type: functional, cell-based;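 also: intracellular parasites grown in NIH/3T3 mouse fibroblasts as host cells; luminescent beta-galactosidase reporter signal from transgenic T. cruzi replicating inside host cells; inhibitors lower the luminescence signal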
[25] = growth suppression of PTEN-null colon cells, dose response, cell-based, HCT116 PTEN knockout (AID 1047); type: functional;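 also: HCT116 colon tumor cells with PTEN knocked out; cells exposed to compound for 60 hours before readout; potency for loss of cell viability measured by luminescence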
[26] = cytotoxicity toward NIH3T3 fibroblasts, dose response, counter-screen, cell-based, ATP luminescence, mouse fibroblasts (AID 2010); type: functional;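 also: cells exposed to compound for about 90 hours before reading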
[27] = HeLa cell cytotoxicity, dose response, cytotoxicity control for MgcRacGAP inhibitor project (AID 624300); type: functional
[28] = human group III sPLA2 inhibitors, dose response, biochemical, QFRET, IC50 (AID 743457);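 also: green fluorescence rise as the enzyme cleaves BODIPY PC-A2 in liposomes; potency for inhibition of the enzyme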
Interleukin-8 = Interleukin-8 (Homo sapiens, UniProt P10145); experiment: Dose Response confirmation of uHTS small molecule hits for cystic fibrosis induced NFkb Inhibitors in a PAF-induced IL8 counterscreen.; type: functional; details: read-out: IC50_Mean
[29] = molecular target: T5, Nuclear receptor subfamily 0 group B member 1 (Homo sapiens, UniProt P51843); type: functional, cell-based;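 also: HEK293T cells transfected with SF-1 and DAX-1 plus StAR promoter luciferase reporter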
T5 sequence (P51843 whole entry): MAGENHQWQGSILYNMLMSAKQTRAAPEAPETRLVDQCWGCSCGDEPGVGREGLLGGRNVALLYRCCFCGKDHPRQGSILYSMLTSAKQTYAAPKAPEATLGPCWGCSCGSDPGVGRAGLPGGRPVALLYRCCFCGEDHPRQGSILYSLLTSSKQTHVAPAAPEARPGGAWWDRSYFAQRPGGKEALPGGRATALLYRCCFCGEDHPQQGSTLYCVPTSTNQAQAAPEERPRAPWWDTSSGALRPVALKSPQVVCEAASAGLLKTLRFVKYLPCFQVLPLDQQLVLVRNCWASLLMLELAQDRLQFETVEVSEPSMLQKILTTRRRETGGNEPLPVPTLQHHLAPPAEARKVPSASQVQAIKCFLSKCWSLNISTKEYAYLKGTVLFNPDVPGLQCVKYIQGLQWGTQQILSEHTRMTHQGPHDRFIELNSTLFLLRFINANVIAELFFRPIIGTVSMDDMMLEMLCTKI

cells = type: functional, cell-based
H9c2 = experiment: cells; type: functional, cell-based; details: Rattus norvegicus, H9c2, Myocardium;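 also: confirmatory concentration-response retest of ultra-high-throughput screening hits for modulation of myocardial damage; cell death induced by hydrogen peroxide oxidative stress; compound pretreatment for 60 min then peroxide exposure for 2 h; potency is for protecting the cells against peroxide damage rather than for killing them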
[30] = Counterscreen for inhibitors of Trypanosoma brucei methionyl tRNA synthetase (MetRS): Luminescence-based cell-based high throughput dose response assay to identify compounds that are cytotoxic to Jurkat human T lymphocyte cells.; type: functional

Steroidogenic factor 1, sequence (Q13285 whole entry): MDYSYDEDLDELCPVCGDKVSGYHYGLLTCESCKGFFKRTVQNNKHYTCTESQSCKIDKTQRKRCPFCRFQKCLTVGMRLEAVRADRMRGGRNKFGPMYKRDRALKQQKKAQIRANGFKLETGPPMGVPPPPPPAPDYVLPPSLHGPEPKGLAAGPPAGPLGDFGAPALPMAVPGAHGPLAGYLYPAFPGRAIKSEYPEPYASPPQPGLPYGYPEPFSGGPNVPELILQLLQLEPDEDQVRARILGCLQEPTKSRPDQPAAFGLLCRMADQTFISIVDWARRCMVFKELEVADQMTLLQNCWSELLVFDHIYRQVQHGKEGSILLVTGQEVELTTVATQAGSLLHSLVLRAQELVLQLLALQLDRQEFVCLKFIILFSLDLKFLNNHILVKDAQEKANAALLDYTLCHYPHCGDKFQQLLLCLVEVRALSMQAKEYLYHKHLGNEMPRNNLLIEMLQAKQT
Glycogen synthase kinase-3 beta, sequence (P49841 whole entry): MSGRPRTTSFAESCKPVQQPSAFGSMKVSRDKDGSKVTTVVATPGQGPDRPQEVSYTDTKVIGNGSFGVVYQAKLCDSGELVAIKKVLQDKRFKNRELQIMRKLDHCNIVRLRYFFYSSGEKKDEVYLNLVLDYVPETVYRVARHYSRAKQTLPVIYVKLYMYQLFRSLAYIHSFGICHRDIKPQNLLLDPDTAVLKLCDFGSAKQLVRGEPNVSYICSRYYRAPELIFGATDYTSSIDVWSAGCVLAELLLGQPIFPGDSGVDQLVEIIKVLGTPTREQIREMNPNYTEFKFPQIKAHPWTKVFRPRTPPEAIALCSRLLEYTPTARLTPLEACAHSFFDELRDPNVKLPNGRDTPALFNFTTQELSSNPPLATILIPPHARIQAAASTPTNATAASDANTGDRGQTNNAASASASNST
Homeodomain-interacting protein kinase 2, sequence (Q9H2X6 whole entry): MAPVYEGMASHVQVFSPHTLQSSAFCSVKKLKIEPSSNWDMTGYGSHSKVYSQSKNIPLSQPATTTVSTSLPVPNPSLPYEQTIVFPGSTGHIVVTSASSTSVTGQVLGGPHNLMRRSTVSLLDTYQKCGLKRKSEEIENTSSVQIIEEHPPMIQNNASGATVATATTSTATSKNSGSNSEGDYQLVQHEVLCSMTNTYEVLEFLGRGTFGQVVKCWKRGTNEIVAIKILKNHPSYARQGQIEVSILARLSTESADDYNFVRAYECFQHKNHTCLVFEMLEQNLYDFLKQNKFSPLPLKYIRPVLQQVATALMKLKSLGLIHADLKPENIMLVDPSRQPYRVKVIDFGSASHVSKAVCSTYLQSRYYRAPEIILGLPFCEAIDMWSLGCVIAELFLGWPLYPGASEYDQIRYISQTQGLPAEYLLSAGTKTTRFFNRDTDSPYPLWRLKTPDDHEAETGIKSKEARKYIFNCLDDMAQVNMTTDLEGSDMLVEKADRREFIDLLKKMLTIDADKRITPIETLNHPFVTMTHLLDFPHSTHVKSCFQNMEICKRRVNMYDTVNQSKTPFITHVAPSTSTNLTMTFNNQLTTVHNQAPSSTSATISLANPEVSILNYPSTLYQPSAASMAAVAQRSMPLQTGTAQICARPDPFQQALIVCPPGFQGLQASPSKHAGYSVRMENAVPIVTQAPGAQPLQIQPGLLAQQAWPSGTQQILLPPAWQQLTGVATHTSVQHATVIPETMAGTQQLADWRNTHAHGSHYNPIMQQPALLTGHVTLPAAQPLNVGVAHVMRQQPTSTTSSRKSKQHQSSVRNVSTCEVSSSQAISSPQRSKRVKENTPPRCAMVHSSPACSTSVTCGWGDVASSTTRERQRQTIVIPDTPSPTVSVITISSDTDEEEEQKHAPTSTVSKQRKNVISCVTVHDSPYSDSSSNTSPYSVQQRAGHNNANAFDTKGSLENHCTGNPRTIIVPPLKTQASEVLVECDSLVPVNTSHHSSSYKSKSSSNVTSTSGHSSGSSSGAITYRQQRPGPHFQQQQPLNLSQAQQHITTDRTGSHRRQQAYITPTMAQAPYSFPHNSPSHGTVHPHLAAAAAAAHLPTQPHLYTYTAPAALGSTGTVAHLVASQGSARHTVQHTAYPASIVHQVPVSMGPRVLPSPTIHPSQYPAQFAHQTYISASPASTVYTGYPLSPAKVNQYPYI
Adenosylmethionine-8-amino-7-oxononanoate aminotransferase, sequence (P9WQ81 whole entry): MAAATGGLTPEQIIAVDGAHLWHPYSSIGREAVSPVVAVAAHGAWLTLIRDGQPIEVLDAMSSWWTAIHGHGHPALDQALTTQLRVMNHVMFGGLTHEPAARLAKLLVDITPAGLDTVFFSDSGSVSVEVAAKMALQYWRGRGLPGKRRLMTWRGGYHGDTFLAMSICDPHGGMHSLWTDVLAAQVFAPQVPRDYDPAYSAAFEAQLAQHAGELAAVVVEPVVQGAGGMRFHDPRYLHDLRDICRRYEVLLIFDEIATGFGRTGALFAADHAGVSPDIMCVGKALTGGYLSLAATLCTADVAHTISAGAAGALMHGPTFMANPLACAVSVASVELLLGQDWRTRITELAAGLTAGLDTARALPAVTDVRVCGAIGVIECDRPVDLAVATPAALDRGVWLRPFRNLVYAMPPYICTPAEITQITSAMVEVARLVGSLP
MAP kinase-interacting serine/threonine-protein kinase 2, sequence (Q9HBH9 whole entry): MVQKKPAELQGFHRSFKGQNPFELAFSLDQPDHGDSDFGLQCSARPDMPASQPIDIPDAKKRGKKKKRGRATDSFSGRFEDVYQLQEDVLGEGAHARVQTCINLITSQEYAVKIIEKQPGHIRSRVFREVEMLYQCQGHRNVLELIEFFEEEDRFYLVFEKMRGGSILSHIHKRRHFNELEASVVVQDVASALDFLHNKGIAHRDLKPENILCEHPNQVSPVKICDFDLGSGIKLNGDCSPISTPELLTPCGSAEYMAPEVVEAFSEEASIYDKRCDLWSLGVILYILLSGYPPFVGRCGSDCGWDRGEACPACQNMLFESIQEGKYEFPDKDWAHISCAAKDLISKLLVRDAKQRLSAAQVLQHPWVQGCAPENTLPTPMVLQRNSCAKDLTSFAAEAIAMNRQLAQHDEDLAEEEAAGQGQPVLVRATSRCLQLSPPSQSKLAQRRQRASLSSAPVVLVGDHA
Nuclear receptor subfamily 5 group A member 2, sequence (O00482 whole entry): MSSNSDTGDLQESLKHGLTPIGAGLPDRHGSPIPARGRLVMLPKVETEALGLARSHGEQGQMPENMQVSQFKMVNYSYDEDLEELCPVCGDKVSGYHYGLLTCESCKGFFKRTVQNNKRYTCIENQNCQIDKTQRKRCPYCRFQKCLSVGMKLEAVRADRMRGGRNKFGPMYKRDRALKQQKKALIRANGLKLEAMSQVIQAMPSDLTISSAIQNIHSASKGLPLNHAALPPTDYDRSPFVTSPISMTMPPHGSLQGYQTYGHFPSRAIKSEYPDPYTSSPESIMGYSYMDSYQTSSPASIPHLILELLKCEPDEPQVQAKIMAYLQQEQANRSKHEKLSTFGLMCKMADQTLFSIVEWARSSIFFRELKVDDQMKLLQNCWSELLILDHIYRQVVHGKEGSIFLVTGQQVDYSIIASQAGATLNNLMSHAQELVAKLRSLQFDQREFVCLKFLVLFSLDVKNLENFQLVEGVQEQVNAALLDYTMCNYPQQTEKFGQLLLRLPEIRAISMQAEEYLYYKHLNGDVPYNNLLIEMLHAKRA
Arf-GAP with SH3 domain, ANK repeat and PH domain-containing protein 1, sequence (Q9ULH1 whole entry, the tested form may be a part): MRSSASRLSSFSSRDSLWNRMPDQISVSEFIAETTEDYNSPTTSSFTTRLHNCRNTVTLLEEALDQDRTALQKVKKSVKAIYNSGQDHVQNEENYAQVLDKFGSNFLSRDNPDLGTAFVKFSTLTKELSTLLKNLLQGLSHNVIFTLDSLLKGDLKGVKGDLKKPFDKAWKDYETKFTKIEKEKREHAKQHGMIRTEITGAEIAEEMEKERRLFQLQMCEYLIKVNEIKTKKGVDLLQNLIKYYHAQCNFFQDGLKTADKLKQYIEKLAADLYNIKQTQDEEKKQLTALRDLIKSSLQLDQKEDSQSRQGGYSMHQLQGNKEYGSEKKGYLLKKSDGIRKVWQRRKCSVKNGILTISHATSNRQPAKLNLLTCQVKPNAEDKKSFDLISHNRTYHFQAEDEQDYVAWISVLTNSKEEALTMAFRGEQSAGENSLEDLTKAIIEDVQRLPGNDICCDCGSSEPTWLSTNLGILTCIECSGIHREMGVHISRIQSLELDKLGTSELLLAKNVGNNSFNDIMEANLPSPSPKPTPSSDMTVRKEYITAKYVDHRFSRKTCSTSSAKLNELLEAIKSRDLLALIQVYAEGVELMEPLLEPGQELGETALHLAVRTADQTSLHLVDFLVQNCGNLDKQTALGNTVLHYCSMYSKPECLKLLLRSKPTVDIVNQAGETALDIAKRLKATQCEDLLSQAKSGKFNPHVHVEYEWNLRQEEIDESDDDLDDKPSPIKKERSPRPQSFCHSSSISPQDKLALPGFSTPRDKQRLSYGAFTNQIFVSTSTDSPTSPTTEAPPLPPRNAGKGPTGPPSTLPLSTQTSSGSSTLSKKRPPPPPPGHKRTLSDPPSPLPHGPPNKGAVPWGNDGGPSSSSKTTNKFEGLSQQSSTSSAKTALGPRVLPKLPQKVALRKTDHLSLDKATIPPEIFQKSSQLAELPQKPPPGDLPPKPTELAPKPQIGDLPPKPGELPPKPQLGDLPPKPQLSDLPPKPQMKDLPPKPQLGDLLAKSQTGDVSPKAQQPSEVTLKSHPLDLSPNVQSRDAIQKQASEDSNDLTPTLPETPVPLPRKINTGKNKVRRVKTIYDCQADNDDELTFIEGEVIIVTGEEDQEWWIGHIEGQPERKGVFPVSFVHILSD
Serine/threonine-protein kinase pim-1, sequence (P11309 whole entry): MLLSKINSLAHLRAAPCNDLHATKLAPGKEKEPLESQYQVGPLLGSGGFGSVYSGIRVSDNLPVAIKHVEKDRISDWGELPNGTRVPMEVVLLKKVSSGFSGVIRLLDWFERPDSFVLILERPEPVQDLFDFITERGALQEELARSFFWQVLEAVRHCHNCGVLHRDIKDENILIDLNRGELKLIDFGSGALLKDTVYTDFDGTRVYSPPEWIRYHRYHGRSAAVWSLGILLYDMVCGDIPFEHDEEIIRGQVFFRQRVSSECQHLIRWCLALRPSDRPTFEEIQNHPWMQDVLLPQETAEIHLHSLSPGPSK

c1ccc(Cn2nnc(-c3ccc4[nH]ncc4c3)c2-c2ccccc2)cc1
Ki [1]: 0.0316 µM (active) | Ki [2]: > 10 µM (inactive) | Ki [3]: 3.16 µM (active) | Ki [4]: 1 µM (active) | Ki [5]: 0.0398 µM (active) | Ki [6]: 0.794 µM (active) | Ki [7]: 0.00501 µM (active) | Ki [8]: 0.000631 µM (active) | Ki [9]: 0.01 µM (active)

COc1ccc(NC(=O)CSc2ccc3c(c2)OCCO3)cc1
IC50 [10]: 35.9 µM (inactive) | IC50 (Steroidogenic factor 1): 5.7 µM (active) | IC50 [11]: 35.9 µM (inactive)

COC(=O)[C@@H]1COC(c2cc([N+](=O)[O-])ccc2[N+](=O)[O-])=N1
EC50 [12]: > 100 µM (inactive)

Oc1ccc(CN2CCCCC2)nc1O
IC50 [13]: 57.9 µM (inactive) | IC50 [14]: 3.73 µM (active) | IC50 (Genome polyprotein): 64.9 µM (active) | IC50 [15]: > 66 µM (inactive) | IC50 [16]: 15.5 µM (active)

O=C(Nc1nccs1)[C@H]1[C@H](CO)[C@H]2Cn3c(ccc(-c4cccnc4)c3=O)[C@H]2N1CC1CCCC1
AC50 [17]: 8.95 µM (active)

CCOc1cccc(C(=O)Nc2ccc3oc(Cc4ccc(Cl)cc4)nc3c2)c1
AC50 [18]: > 52 µM (inactive)

CC(C)n1nc(C(=O)Nc2ccc(-n3cnnn3)cc2)c2ccccc2c1=O
AC50 [18]: > 52 µM (inactive)

O=C(C[C@@H]1C[C@@H]2c3cc(NC(=O)c4cccnc4)ccc3O[C@@H]2[C@@H](CO)O1)NCCc1ccccc1
AC50 [17]: 6.92 µM (active)

O=C(N/N=C/c1cc(Cl)ccc1O)c1ccc(Br)cc1
AC50 [19]: 1.09 µM (active) | IC50 (Prothrombin): 63.2 µM (active) | IC50 [20]: 12.7 µM (active) | AC50 (INS1): 0.773 µM (active) | IC50 [21]: 10.3 µM (active) | IC50 [22]: 21.3 µM (inactive)

Cc1ccc(NC(=O)CSc2nnc([C@@H]3CCCN3C(=O)OC(C)(C)C)o2)c(C)c1
IC50 [10]: 1.33 µM (active) | IC50 (Steroidogenic factor 1): 0.932 µM (active) | IC50 [11]: 35.9 µM (inactive)

c1cnc2[nH]cc(-c3ccnc(NCC4CCCCC4)n3)c2c1
Ki [1]: 0.2 µM (active) | Ki [2]: 0.316 µM (active) | Ki [3]: > 10 µM (inactive) | Ki [4]: 0.0158 µM (active) | Ki [5]: 0.0794 µM (active) | Ki [6]: 0.02 µM (active) | Ki [8]: 0.00794 µM (active) | Ki [9]: 0.126 µM (active)

N#Cc1cc([N+](=O)[O-])ccc1Oc1cccc(/C=N/NC(=O)c2ccc(Cl)cc2)c1
EC50 [23]: 51.9 µM (active) | EC50 [24]: 0.616 µM (active) | EC50 [25]: 48.5 µM (active) | EC50 [26]: > 60 µM (not active) | IC50 [22]: 32.8 µM (inactive)

COc1ccccc1NC(=O)NNC(=O)c1ccc2ccccc2c1O
CC50 [27]: 100 µM (active) | IC50 [28]: > 122 µM (inactive)

CC(=O)Oc1ccccc1C(=O)Oc1ccc(/C=N/n2cnnc2)cc1
IC50 (Interleukin-8): 4.67 µM (active)

CCCCN1C(C)=CC(=C2C(=O)c3ccccc3C2=O)C=C1C
IC50 [29]: > 67.5 µM (inactive) | IC50 (cells): > 67.5 µM (inactive)

C=CCOc1ccc(/C=N/Nc2ccccn2)cc1OC
IC50 [29]: > 67.5 µM (inactive) | IC50 (cells): > 67.5 µM (inactive)

Cc1cc(Cl)ccc1OCCCC(=O)NNC(=O)c1ccccc1O
IC50 (H9c2): > 79 µM (inactive) | IC50 [30]: 83.3 µM (inactive)
